Reference: patent US9572813B2, “Antiviral agent” (SHIONOGI & CO., LTD., priority 2001, dated 2017)

Row | melting point | Compound
1 | 150 to 151 °C | CN1CC(C(=O)c2cnn(Cc3ccc(F)cc3)c2)=C(O)C1=O
2 | 129.5 to 131 °C | CC(C)N1CC(C(=O)c2cnn(Cc3ccc(F)cc3)c2)=C(O)C1=O
3 | 174 to 178 °C | CC(C)N1CC(C(=O)c2cnc(Cc3ccc(F)cc3)o2)=C(O)C1=O
4 | 209 to 210 °C | CN1CC(C(=O)c2nc(Cc3ccc(F)cc3)co2)=C(O)C1=O
5 | 143 to 145 °C | CN1CC(C(=O)c2cc(Cc3ccc(F)cc3)co2)=C(O)C1=O
6 | 134 to 135 °C | COc1cc(F)ccc1Cc1ccc(C(=O)C2=C(O)C(=O)N(C)C2)o1
7 | 160 to 161 °C | COc1cc(Cc2ccc(C(=O)C3=C(O)C(=O)N(C(C)C)C3)o2)ccc1F
8 | 164 to 166 °C | COc1cc(Cc2ccc(C(=O)C3=C(O)C(=O)N(C)C3)o2)ccc1F
9 | 162 to 163 °C | CC(C)N1CC(C(=O)c2ccc(Cc3ccccc3)o2)=C(O)C1=O
10 | 116 to 118 °C | CN1CC(C(=O)c2ccc(Cc3ccccc3)o2)=C(O)C1=O
11 | 175 to 176 °C | CN1CC(C(=O)c2oc(C3CCCCC3)cc2Cc2ccc(F)cc2)=C(O)C1=O
12 | 140 to 141 °C | CCC(CC)N1CC(C(=O)c2ccc(Cc3ccc(F)cc3)o2)=C(O)C1=O
13 | 209 to 211 °C (dec.) | CN1CC(C(=O)c2oc(C(=O)N3CCOCC3)cc2Cc2ccc(F)cc2)=C(O)C1=O
14 | 255 to 258 °C (dec.) | CN1CC(C(=O)c2cc(C(=O)O)c(Cc3ccc(F)cc3)o2)=C(O)C1=O
15 | 169 to 170 °C | CCNC(=O)c1cc(C(=O)C2=C(O)C(=O)N(C)C2)oc1Cc1ccc(F)cc1
16 | 181 to 184 °C | CN1CC(C(=O)c2cc(C(=O)NCc3ccccc3)c(Cc3ccc(F)cc3)o2)=C(O)C1=O
17 | 120 to 122 °C | CC(C)N1C(=O)C(O)=C(C(=O)c2ccc(Cc3ccc(F)cc3)o2)C1C (stereo not shown)
18 | 95 to 96.5 °C | C=CCN1CC(C(=O)c2ccc(Cc3ccc(F)cc3)o2)=C(O)C1=O
19 | 129 to 130 °C | O=C(C1=C(O)C(=O)N(Cc2ccccc2)C1)c1ccc(Cc2ccc(F)cc2)o1
20 | 132 to 133 °C | CCC(O)CN1CC(C(=O)c2ccc(Cc3ccc(F)cc3)o2)=C(O)C1=O (stereo not shown)
21 | 171 °C | CCCC(O)CN1CC(C(=O)c2ccc(Cc3ccc(F)cc3)o2)=C(O)C1=O (stereo not shown)
22 | 119 to 120 °C | O=C(C1=C(O)C(=O)N(CC(O)CO)C1)c1ccc(Cc2ccc(F)cc2)o1 (stereo not shown)
23 | 228 to 232 °C (dec.) | O=C(C1=C(O)C(=O)N(CCN2CCCCC2)C1)c1ccc(Cc2ccc(F)cc2)o1
24 | 171 to 172 °C | CN1CC(C(=O)c2ccoc2Cc2ccc(F)cc2)=C(O)C1=O
25 | 195 to 196 °C | O=C(C1=C(O)C(=O)N(CCO)C1)c1occc1Cc1ccc(F)cc1

Row | melting point | Compound
26 | 170 °C | COCCN1CC(C(=O)c2occc2Cc2ccc(F)cc2)=C(O)C1=O
27 | 167 °C | CCN1CC(C(=O)c2occc2Cc2ccc(F)cc2)=C(O)C1=O
28 | 208 to 210 °C | O=C(C1=C(O)C(=O)N(CC(O)CO)C1)c1occc1Cc1ccc(F)cc1 (stereo not shown)
29 | 154 to 156 °C | Cc1cc(Cc2ccc(F)cc2)c(C(=O)C2=C(O)C(=O)N(C)C2)o1
30 | 125 to 127 °C | Cc1cc(Cc2ccc(F)cc2)c(C(=O)C2=C(O)C(=O)N(C(C)C)C2)o1
31 | 157 to 160 °C | CN1CC(C(=O)c2oc(Cc3ccc(F)cc3)cc2Cc2ccc(F)cc2)=C(O)C1=O
32 | 159 to 161 °C | CC(C)N1CC(C(=O)c2oc(Cc3ccc(F)cc3)cc2Cc2ccc(F)cc2)=C(O)C1=O
33 | 179 to 181 °C | CN1CC(C(=O)c2oc(C(C)(C)C)cc2Cc2ccc(F)cc2)=C(O)C1=O
34 | 242 to 245 °C | Cc1ccc(-c2cc(Cc3ccc(F)cc3)c(C(=O)C3=C(O)C(=O)N(C)C3)o2)cc1
35 | 148 to 150 °C | CC(C)(C)c1cc(Cc2ccc(F)cc2)c(C(=O)C2=C(O)C(=O)N(C3CC3)C2)o1
36 | 170 °C | Cc1nc(C(=O)C2=C(O)C(=O)N(C)C2)c(Cc2ccc(F)cc2)o1
37 | 224 to 226 °C | CC(C)N1CC(C(=O)c2cn(Cc3ccc(F)cc3)cn2)=C(O)C1=O
38 | 156 to 159 °C | CC(C)N1CC(C(=O)c2cncn2Cc2ccc(F)cc2)=C(O)C1=O
39 | 221 to 223 °C | CN1CC(C(=O)c2ccc(Cc3ccc(F)cc3)[nH]2)=C(O)C1=O
40 | 265 to 267 °C | CN1CC(C(=O)c2c[nH]cc2Cc2ccc(F)cc2)=C(O)C1=O
41 | 223 to 225 °C | CN1CC(c2cnc(Cc3ccc(F)cc3)cn2)=C(O)C1=O
42 | 207 to 209 °C | CC(C)N1CC(c2cnc(Cc3ccc(F)cc3)cn2)=C(O)C1=O
43 | 169 to 171 °C | CN1CC(c2ncnc(OCc3ccc(F)cc3)n2)=C(O)C1=O
44 | 214 to 216 °C | CN1CC(c2ncc(CCc3ccc(F)cc3)s2)=C(O)C1=O
45 | 222 to 224 °C | CN1CC(c2ncc(Cc3ccc(F)cc3)s2)=C(O)C1=O
46 | 212 to 214 °C | CC(C)N1CC(c2ncc(Cc3ccc(F)cc3)s2)=C(O)C1=O
47 | 240 to 241 °C | CC(C)c1ccccc1COc1cc(C2=C(O)C(=O)N(C)C2)ncn1
48 | 225 to 228 °C | CN1CC(c2cc(CCc3ccc(F)cc3)ncn2)=C(O)C1=O
49 | 225 to 228 °C | CC(C)N1CC(c2cc(CCc3ccc(F)cc3)ncn2)=C(O)C1=O
50 | 162 to 164 °C | CN1CC(c2cc(C(Cc3ccc(F)cc3)Cc3ccc(F)cc3)ncn2)=C(O)C1=O

Row | melting point | Compound
51 | 181 to 183 °C | CC(C)N1CC(c2cc(C(Cc3ccc(F)cc3)Cc3ccc(F)cc3)ncn2)=C(O)C1=O
52 | 200 to 202 °C | CN1CC(c2ccc(Oc3ccccc3)cn2)=C(O)C1=O
53 | 181 to 183 °C | CC(C)N1CC(c2ccc(Oc3ccccc3)cn2)=C(O)C1=O
54 | 229 to 230 °C | CN1CC(c2ccc(Oc3ccc(F)cc3)cn2)=C(O)C1=O
55 | 178 to 179 °C | CC(C)N1CC(c2ccc(Oc3ccc(F)cc3)cn2)=C(O)C1=O
56 | 210 to 211 °C | CN1CC(c2ccc(OCc3ccc(F)cc3)cn2)=C(O)C1=O
57 | 228 to 230 °C | CN1CC(c2ccc([S+]([O-])c3ccc(F)cc3)cn2)=C(O)C1=O (stereo not shown)
58 | 163 to 165 °C | CN1CC(c2ncc(Cc3ccc(F)cc3)cn2)=C(O)C1=O
59 | 155 to 157 °C | CC(C)N1CC(c2ncc(Cc3ccc(F)cc3)cn2)=C(O)C1=O
60 | 207 to 208 °C | CN1CC(c2ncc(Oc3ccccc3)cn2)=C(O)C1=O
61 | 230 to 232 °C | CN1CC(c2ncc(Oc3ccc(F)cc3)cn2)=C(O)C1=O
62 | 165 to 166 °C | CC(C)N1CC(c2ncc(Oc3ccc(F)cc3)cn2)=C(O)C1=O
63 | 229 to 231 °C | CC(C)N1CC(c2cc(CCc3ccccc3)ncn2)=C(O)C1=O
64 | 182 to 183 °C | CCC(CC)N1CC(c2cc(CCc3ccccc3)ncn2)=C(O)C1=O
65 | 148 to 149 °C | CC(C)N1CC(c2nccc(OCc3ccc(F)cc3)n2)=C(O)C1=O
66 | 219 to 221 °C | CC(C)N1CC(c2ncc(OCc3ccc(F)cc3)cn2)=C(O)C1=O
67 | 118 to 119 °C | CN1CC(c2nccc(CCc3ccccc3)n2)=C(O)C1=O
68 | 126 to 127 °C | CC(C)N1CC(c2nccc(CCc3ccccc3)n2)=C(O)C1=O
69 | 220 to 225 °C | CN1CC(c2ccc(Oc3ccccc3)nn2)=C(O)C1=O
70 | 203 to 205 °C | CC(C)N1CC(c2ccc(Oc3ccccc3)nn2)=C(O)C1=O
71 | 204 to 206 °C | CC(C)N1CC(c2ccc(Oc3ccc(F)cc3)nn2)=C(O)C1=O
72 | 203 to 205 °C | CN1CC(c2cc(CCc3ccccc3)cnn2)=C(O)C1=O
73 | 233 to 235 °C | CN1CC(c2cnc(Oc3ccccc3)cn2)=C(O)C1=O
74 | 216 to 217 °C | CC(C)N1CC(c2cnc(Oc3ccccc3)cn2)=C(O)C1=O
75 | 237 to 238 °C | CN1CC(c2cnc(Oc3ccc(F)cc3)cn2)=C(O)C1=O

Row | melting point | Compound
76 | 227 to 229 °C | CC(C)N1CC(c2cnc(Oc3ccc(F)cc3)cn2)=C(O)C1=O
77 | 190 to 192 °C | CCOC(=O)c1oc2ccc(OCc3ccc(F)cc3)cc2c(=O)c1O
78 | 264 to 266 °C | Cn1cnc(-c2oc3cccc(OCc4ccc(F)cc4)c3c(=O)c2O)n1
79 | 289 to 292 °C | Cc1nc(-c2oc3cccc(OCc4ccc(F)cc4)c3c(=O)c2O)n[nH]1
80 | 254 to 256 °C | O=c1c(O)c(-c2nc[nH]n2)oc2cccc(OCc3ccc(F)cc3)c12
81 | 252 to 254 °C | O=c1c(O)c(-c2ncccn2)oc2cccc(OCc3ccc(F)cc3)c12
82 | 280 to 282 °C | Cn1ncnc1-c1oc2cc(C(=O)O)cc(OCc3ccc(F)cc3)c2c(=O)c1O
83 | 192 to 193 °C | Cn1ncnc1-c1oc2cccc(CCc3ccc(F)cc3)c2c(=O)c1O
84 | 260 to 262 °C | O=c1c(O)c(-c2ncn(Cc3ccc(F)cc3)n2)oc2ccccc12
85 | 235 to 236 °C | O=C(NCc1ccc(F)cc1)c1oc2ccccc2c(=O)c1O
86 | 226 to 227 °C | O=C(c1ccc(Cc2ccc(F)cc2)o1)c1oc2ccccc2c(=O)c1O
87 | 222 °C | Cn1c(-c2nnc(Cc3ccc(F)cc3)o2)c(O)c(=O)c2ccccc21
88 | 147 to 148 °C | COCc1cc(=O)c(O)c(C(=O)c2ccc(Cc3ccc(F)cc3)o2)o1
89 | 174 to 176 °C | COC(=O)c1cc(=O)c(O)c(C(=O)c2ccc(Cc3ccc(F)cc3)o2)o1
90 | 146 to 148 °C | O=C(c1ccc(Cc2ccc(F)cc2)o1)c1oc(C(=O)N2CCCCC2)cc(=O)c1O
91 | 190 to 194 °C (dec.) | N#Cc1cc(=O)c(O)c(C(=O)c2ccc(Cc3ccc(F)cc3)o2)o1
92 | 191 to 192 °C | O=C(c1ccc(Cc2ccc(F)cc2)o1)c1occ(Br)c(=O)c1O
93 | 255 to 256 °C | Cc1nc(=O)c(O)c(-c2ccc(Oc3ccc(F)cc3)cn2)[nH]1
94 | 283 to 286 °C | Cc1nc(=O)c(O)c(-c2nnc(Cc3ccc(F)cc3)o2)[nH]1
95 | 110 to 111 °C | Cn1c(C(=O)c2ccc(Cc3ccc(F)cc3)o2)c(O)c(=O)n1C
96 | 166 to 168 °C | O=C1NCCC(C(=O)c2ccc(Cc3ccc(F)cc3)o2)=C1O
97 | 229 to 231 °C | O=C(c1ccc(Cc2ccc(F)cc2)o1)c1cc[nH]c(=O)c1O
